US20080193379A1, “Radioactive Diagnostic Imaging Agent” (Nihon Medi-Physics Co., Ltd., priority 2005, published 2008)

Tests used:
[1] = as injection additive; cited from earlier work
[2] = aqueous solution; reported by Sara Goldstein et al.; cited from earlier work
[3] = Radiolysis stability of 18F-FDG solutions with mannitol: radiochemical purity by TLC (Examples 13-18, Comparative Example 2); assay type: physicochemical; settings: added at 2.5 mmol/L or higher concentrations
Experimental: The same procedure as in Comparative Example 1 and Examples 1 through 12 was repeated to obtain a ^18F-FDG stock solution (radioactivity=126.3 GBq). To the ^18F-FDG stock solution, physiological saline was added for dilution so that the resulting solution had 92.5 MBq/mL 4.5 hours after preparation. This gave a ^18F-FDG solution.
To 2 mL of the above-obtained ^18F-FDG solution, the mannitol solutions having different concentrations shown in Table 3 were each added in amounts shown in Table 3, and mixed at room temperature to prepare respective sample solutions.
The above-obtained samples were subjected to TLC analysis on the below conditions immediately after the preparation of ^18F-FDG solution (Comparative Example 2 only), and 4.5 and 8.5 hours after the preparation. Radiochemical purity was obtained based on the area percentage of the ^18F-FDG peak. The radiochemical purity at each time point was compared to one another to evaluate stability of the samples.
TLC plate=Silica Gel 60 F254 (under trade name, manufactured by Merck & Co., Inc.)
Developing solvent=acetonitrile/water=19:1
Detector=Radiochromanizer (JTC-R75-21361, manufactured by Aloka)

[4] = tested on: glucose transporters; settings: reported by Heli Teerijoki et al. and A. N. Ouraishi et al.; cited from earlier work

SMILES	Maximum dose for intravenous injection [1] [mg]	Scavenger of OH radicals [2]	Prevention of the decrease in radiochemical purity of 18F-FDG caused by radiolysis [3]	Substrate for glucose transporters [4]
O=C(CO)[C@@H](O)[C@H](O)[C@H](O)CO [fructose]	900	–	–	–
OC[C@H]1O[C@@H](O[C@H]2[C@H](O)[C@@H](O)C(O)O[C@@H]2CO)[C@H](O)[C@@H](O)[C@H]1O (stereo partly drawn) [lactose]	1250	–	–	–
OC[C@H]1O[C@H](O[C@H]2[C@H](O)[C@@H](O)[C@H](O)O[C@@H]2CO)[C@H](O)[C@@H](O)[C@@H]1O [maltose]	10000	–	–	–
OC[C@@H](O)[C@@H](O)[C@H](O)[C@H](O)CO [mannitol]	1200	acts as a scavenger of OH radials	can significantly prevent the decrease in the radiochemical purity	does not serve as a substrate for glucose transporters
OC[C@@H](O)[C@@H](O)[C@H](O)[C@@H](O)CO [sorbitol]	1500	–	–	–
OC[C@@H](O)[C@H](O)[C@@H](O)CO [xylitol]	200	–	–	–
